Measurements taken from PubChem BioAssay (NCI).
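Values below derive from 48-hour exposures of cells grown in 96-well plates, with endpoints linearly interpolated between the two concentrations bracketing the appropriate inhibition level. The concentration for 50% growth inhibition is given as GI50. TGI marks complete inhibition of growth.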

How the values were obtained:
Assay in all cases: NCI tumour cell line growth inhibition, 48 h
[1] = system: NCI/ADR-RES ovarian
[2] = system: HS 578T breast
[3] = system: PC-3 prostate
[4] = system: TK-10 renal
[5] = system: A498 renal
[6] = system: MDA-MB-231 breast
[7] = system: RXF 393 renal
[8] = system: HCC-2998 colon
[9] = system: NCI-H522 lung
[10] = system: BT-549 breast

Row | SMILES | TGI [1] [µM] | TGI [2] [µM] | TGI [3] [µM] | TGI [4] [µM] | TGI [5] [µM] | TGI [6] [µM] | TGI [7] [µM] | TGI [8] [µM] | TGI [9] [µM] | TGI [10] [µM] | GI50 [1] [µM] | GI50 [10] [µM] | GI50 [2] [µM] | GI50 [3] [µM] | GI50 [4] [µM] | GI50 [5] [µM] | GI50 [7] [µM] | GI50 [8] [µM] | GI50 [9] [µM]
1 | CCN(CCO)C(=O)C1(c2ccccc2)CCCCC1 | > 10 | > 10 | > 10 | > 10 | > 10 | > 10 | > 10 | > 10 | > 10 | – | – | – | – | – | – | – | – | – | –
2 | CCCCC(=O)c1ccc2ccccc2c1O | > 100 | > 100 | > 100 | > 100 | > 100 | > 100 | > 100 | > 100 | – | > 100 | – | – | – | – | – | – | – | – | –
3 | CCOC(=O)NC(=O)c1cn(CCNCCO)c(=O)[nH]c1=O | – | – | – | – | – | – | – | – | > 100 | – | – | – | – | – | – | – | – | – | –
4 | CN(CCC(=O)O)C1=Nc2ccc(Cl)cc2C(c2ccccc2)=[N+]([O-])C1 | > 100 | > 100 | > 100 | > 100 | > 100 | > 100 | > 100 | – | > 100 | > 100 | – | – | – | – | – | – | – | – | –
5 | OCCCNc1nc(=S)[nH]c2[nH]ncc12 | > 100 | 85.1 | > 100 | > 100 | 48.2 | – | > 100 | > 100 | > 100 | > 100 | > 100 | 46.8 | 30.7 | 70.2 | 33.6 | 13.3 | 44.3 | 22.3 | 26.1
6 | [Cl-].[Rh+3].c1cnc2c(c1)ccc1cccnc12.c1cnc2c(c1)ccc1cccnc12.c1cnc2c(c1)ccc1cccnc12 | – | – | – | – | – | – | – | > 100 | > 100 | – | – | – | – | – | – | – | – | – | –
7 | c1nc(N2CC2)c2cnn(C3CCCCO3)c2n1 (stereo not given) | > 100 | > 100 | > 100 | > 100 | > 100 | > 100 | > 100 | > 100 | > 100 | > 100 | – | – | – | – | – | – | – | – | –
8 | C[C@]12CC[C@H](OC(=O)Cc3ccc(N(CCCl)CCCl)cc3)CC1=CC[C@@H]1[C@@H]2CC[C@]2(C)C(=O)CC[C@@H]12 | > 100 | > 100 | > 100 | > 100 | > 100 | > 100 | > 100 | > 100 | > 100 | > 100 | – | – | – | – | – | – | – | – | –
9 | O=S(=O)(O)C1=C2Sc3ccccc3N=C2c2ccccc2C1 | – | – | – | 32.9 | 32.8 | – | 35.1 | 31.4 | 31.3 | – | – | – | – | – | – | – | – | – | –
10 | Ic1ccc2c(c1)N(c1ccccc1)c1cc(N=c3ccc4nc5ccc(I)cc5n(-c5ccccc5)c-4c3)ccc1N2 | > 100 | > 100 | > 100 | > 100 | > 100 | > 100 | > 100 | > 100 | 69 | > 100 | – | – | – | – | – | – | – | – | –
11 | C[N+](C)(C)CCCSc1nc2ccccc2[nH]1 | > 100 | > 100 | > 100 | > 100 | > 100 | > 100 | > 100 | > 100 | > 100 | > 100 | – | – | – | – | – | – | – | – | –
12 | CN1CCN(c2ccc3[nH]c(-c4cc(O)c5c(nc(CO)n5C)c4O)nc3n2)CC1 | > 100 | > 100 | > 100 | – | – | 63.1 | > 100 | > 100 | > 100 | > 100 | – | – | – | – | – | – | – | – | –
13 | CCCC/C=C/C/C=C/CCCCCCCCC(=O)OCC1CCCN2CCCCC12 (stereo not given) | > 100 | > 100 | > 100 | > 100 | > 100 | > 100 | > 100 | > 100 | – | > 100 | – | – | – | – | – | – | – | – | –
